Measurements from patent publication US20100076072A1, “COMPOSITIONS AND METHODS OF VITAMIN E ADMINISTRATION” (NORTHWESTERN UNIVERSITY, priority 2008, published 2010).

Assays:
PKCα = molecular target: T1, PKCα (Mus musculus, UniProt P20444); experiment: VCAM-1 activation of endothelial cell PKCα (PKCα-Thr638 phosphorylation, western blot); assay type: cell-based; conditions: overnight 80 μM α-tocopherol / 2 μM γ-tocopherol; anti-VCAM-1 stimulation 10 minutes
T1 construct: endogenous in cells; host or cells: endothelial cells (mHEVa named)
Experimental: Endothelial cells were pretreated overnight with physiological concentrations of tocopherols (80 μM α-tocopherol and/or 2 μM γ-tocopherol). Endothelial cell VCAM-1 was stimulated with anti-VCAM-1 and a secondary antibody for 10 minutes. Phosphorylation of PKCα-Thr^638 was examined by western blot, developed using an ECL kit, and analyzed by densitometry as in the methods section. These concentrations of α-tocopherol (80 μM) and γ-tocopherol (2 μM) were optimal for their inhibition or enhancement, respectively, of VCAM-1 activation of PKCα (data not shown). Shown are representative blots and data from 5 experiments. *, p<0.05 compared to nonstimulated groups. **, p<0.05 compared to nonstimulated groups and p<0.07 compared to DMSO-treated/anti-VCAM-stimulated group.

[1] = tested on: OVA-challenged mice (experimental asthma); experiment: Airway hyperresponsiveness to methacholine, whole-body plethysmography (Penh); assay type: in vivo, mouse; conditions: OVA-challenged BALB/c mice, methacholine dose curve, day 21
Experimental: Airway Hyperresponsiveness. Lung responsiveness was determined using methacholine as previously described. On day 21, the mice were analyzed for airway responsiveness by whole body plethysmology. The whole-body plethysmography on conscious, unrestrained mice was performed under continuous airflow conditions (Buxco, Troy, N.Y.). Continuous airflow was used to avoid the influence of conditioning on airway functions, causing aberrant measurements. Enhanced pause (Penh) values were calculated from the flow-derived whole-body plethysmography measurements done with continuous air flow. Penh is a unitless indicator of changes in airway resistance and correlates well with specific airway resistance. Baseline readings were averaged for 5 minutes. Saline or methacholine was nebulized into the airflow for 2-minute periods and the average Penh value calculated for this and the subsequent 8 minutes.
Mice were sensitized with intraperitoneal injection of OVA grade V (10 μg)/alum or saline/alum on days 0 and 7 (SEE FIG. 2). On days 13-20, these mice received daily subcutaneous injections (500) of 2 μg natural tocopherol/ethoxylated castor oil (33) or ethoxylated castor oil alone. This daily 2 μg of natural tocopherol is equivalent to the amount of tocopherol that mice consume from diets (4 g diet consumed/day×500 mg a tocopherol/kg diet) that are commonly used to elevate tissue tocopherols in mice. On days 16, 18, and 20 the mice were challenged with intranasal OVA fraction VI (150 μg) in saline or saline alone. On day 21, the mice were analyzed for airway responsiveness and then tissues were collected. Lung responsiveness was determined using methacholine and whole-body plethysmography as previously described. This method of measuring lung function has the advantage of analysis of larger numbers of animals, as compared to the few animals that can be analyzed using invasive measures of lung function. The whole-body plethysmography correlates well with airway function when performed under continuous flow conditions. […]

[2] = tested on: endotoxin-stimulated neutrophil infiltration into the lung; conditions: other animal models; cited from earlier work
[3] = Body and lung weights on day 21; assay type: in vivo, mouse; conditions: mice, day 21, daily s.c. tocopherol days 13-20
Experimental: (§1) Tissue collection. After airway function analysis, mice were weighed, sacrificed and the lungs flushed twice with 0.8 ml PBS. The cells in this bronchoalveolar lavage (BAL) were cytospun onto slides, DiffQuik (Baxter) stained, and differential cell counts were performed. BAL supernatants were snap frozen and stored at −80° C. for cytokine analysis. Lungs were perfused free of blood and one quarter of the lung was tied off, collected, weighed, snap frozen, and stored at −80° C. for tocopherol analysis and PGE2 analysis. One quarter of the lung was collected and placed in RNA later for analysis of mRNA for eotaxin expression. The other half of the lung was injected with 40% freezing compound, collected and stored at −80° C. for tissue sections and histological staining Frozen sections were prepared rather than paraffin sections since the anti-mouse VCAM-1 antibodies only bind to VCAM-1 in frozen sections.
Body weight and tocopherol levels in these mice were examined. […] Consistent with this, the body weight and lung weights of the mice studied during the development of embodiments of the present invention were unaltered by the α-tocopherol or γ-tocopherol treatments (SEE FIG. 3). Lungs were perfused to remove the blood, homogenized in ethanol and extracted with hexane. Tocopherol concentrations were determined by HPLC with an electrochemical detector. The lung tissue and plasma levels of tocopherols were elevated (SEE FIG. 4). […] The level of γ-tocopherol in the lung tissue of γ-tocopherol-treated mice was 10 fold lower than lung tissue α-tocopherol in the α-tocopherol-treated mice. This 10 fold difference in α-tocopherol and γ-tocopherol levels in the lung tissues may be caused preferential transfer of α-tocopherol in the liver by a TTP (20, 24), although the present invention is not limited to any particular mechanism of action and an understanding of the mechanism of action is not necessary to practice the present invention. […] Administration of tocopherols also had no effect on the low levels of δ-tocopherol in the lung (SEE FIG. 4A).

[4] = tested on: delayed-type-hypersensitivity responses; conditions: in vivo; cited from earlier work
[5] = tested on: OVA-challenged mice (experimental asthma); experiment: OVA experimental asthma: leukocyte infiltration into bronchoalveolar lavage (BAL); assay type: in vivo, mouse; conditions: OVA-challenged BALB/c mice, daily s.c. 2 μg tocopherol days 13-20, day 21, vs OVA-challenged vehicle
Experimental: Reagents. Ethoxylated castor oil was composed of polyethoxylated castor oil (PEG35), 20% ethanol, and 1% benzyl alcohol. […] The purified tocopherols were diluted in ethoxylated castor oil to indicated concentrations for the in vivo studies. The purified tocopherols were diluted in DMSO (0.2%) for the in vitro studies. OVA administration. BALB/c female mice were maintained on chow diet. The mice were sensitized by intraperitoneal injection (200 μl) of OVA grade V (10 μg)/alum or saline/alum on days 0 and 7 (SEE FIG. 1). On days 13-20, these mice received daily subcutaneous injections (50 μl) of 2 μg natural tocopherol/ethoxylated castor oil or ethoxylated castor oil alone. This daily 2 μg of natural tocopherol is equivalent to the amount of tocopherol that mice consume from diets (4 g diet consumed/day×500 mg α-tocopherol/kg diet) that are commonly used to elevate tissue tocopherols in mice. The mice recieved 2 μg d-α-tocopherol, 2 μg d-γ-tocopherol, 2 μg d-α-tocopherol plus 2 μg d-γ-tocopherol or the vehicle exthoxylated castor oil. […] During the OVA responses in mice, tocopherol radicals are recycled by endogenously synthesized ascorbic acid. On days 16, 18, and 20, the mice were challenged with intranasal OVA fraction VI (150 μg) in saline or saline alone. On day 21, the mice were analyzed for airway responsiveness followed by collection of tissues.
as §1
Mice were sensitized with intraperitoneal injection of OVA grade V (10 μg)/alum or saline/alum on days 0 and 7 (SEE FIG. 2). On days 13-20, these mice received daily subcutaneous injections (500) of 2 μg natural tocopherol/ethoxylated castor oil (33) or ethoxylated castor oil alone. This daily 2 μg of natural tocopherol is equivalent to the amount of tocopherol that mice consume from diets (4 g diet consumed/day×500 mg a tocopherol/kg diet) that are commonly used to elevate tissue tocopherols in mice. On days 16, 18, and 20 the mice were challenged with intranasal OVA fraction VI (150 μg) in saline or saline alone. On day 21, the mice were analyzed for airway responsiveness and then tissues were collected. Lung responsiveness was determined using methacholine and whole-body plethysmography as previously described. This method of measuring lung function has the advantage of analysis of larger numbers of animals, as compared to the few animals that can be analyzed using invasive measures of lung function. The whole-body plethysmography correlates well with airway function when performed under continuous flow conditions. This measurement under continuous flow is critical as it avoids the complication of airway conditioning that occurs if these measurements are incorrectly made under closed conditions. After airway analysis, mice were sacrificed and tissues collected.

For Cc1c(C)c2c(c(C)c1O)CC[C@@](C)(CCC[C@H](C)CCC[C@H](C)CCCC(C)C)O2 [α-tocopherol, d-α-tocopherol, reference compound], the “VCAM-1 activation of PKCα (phosphorylation of PKCα-Thr638)” value (PKCα) is listed as “inhibition”, the “Airway hyperresponsiveness (AHR), enhanced pause (Penh)” value [1] is listed as “completely ablated” and the “Endotoxin-stimulated neutrophil infiltration into the lung” value [2] is listed as “reduces”. For the same compound, the Body weight [3] was “unaltered”, the Lung weights [3] was “unaltered” and the Delayed-type-hypersensitivity responses [4] was “reduces”. For the same compound, the “OVA-stimulated infiltration of eosinophils into the BAL” value [5] was “significantly reduced”, the “OVA-stimulated infiltration of lymphocytes into the BAL” value [5] was “significantly reduced” and the “OVA-stimulated infiltration of monocytes into the BAL” value [5] was “significantly reduced”.
